According to US20250171447A1, “ADENOSINE RECEPTOR ANTAGONISTS, PHARMACEUTICAL COMPOSITIONS AND THEIR USE THEREOF” (Merck Sharp & Dohme LLC, priority 2022, published 2025):

Tests used:
[1] = target: human A2A adenosine receptor (Homo sapiens (Human), UniProt P29274); experiment: A2A receptor affinity binding assay (radioligand filtration binding or SPA, [3H]SCH58261); conditions: membranes from HEK293 or CHO cells expressing human A2A; Method (A) filtration or Method (B) SPA
[2] = target: human A2B adenosine receptor (Homo sapiens (Human), UniProt P29275); experiment: A2B binding affinity radioligand filtration binding assay; conditions: membranes from HEK293 cells expressing human A2B; tritiated proprietary A2B antagonist
Chain of human A2B adenosine receptor (P29275 whole entry): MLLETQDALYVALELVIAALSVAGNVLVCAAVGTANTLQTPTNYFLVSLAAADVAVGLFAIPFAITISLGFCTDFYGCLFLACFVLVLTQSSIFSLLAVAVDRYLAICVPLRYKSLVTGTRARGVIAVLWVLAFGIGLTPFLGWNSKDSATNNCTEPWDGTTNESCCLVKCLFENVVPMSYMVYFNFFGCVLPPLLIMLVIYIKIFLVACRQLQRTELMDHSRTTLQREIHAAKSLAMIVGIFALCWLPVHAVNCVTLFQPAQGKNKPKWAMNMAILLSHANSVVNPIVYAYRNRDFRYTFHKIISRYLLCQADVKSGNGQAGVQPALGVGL

Chain of human A2A adenosine receptor (P29274 whole entry): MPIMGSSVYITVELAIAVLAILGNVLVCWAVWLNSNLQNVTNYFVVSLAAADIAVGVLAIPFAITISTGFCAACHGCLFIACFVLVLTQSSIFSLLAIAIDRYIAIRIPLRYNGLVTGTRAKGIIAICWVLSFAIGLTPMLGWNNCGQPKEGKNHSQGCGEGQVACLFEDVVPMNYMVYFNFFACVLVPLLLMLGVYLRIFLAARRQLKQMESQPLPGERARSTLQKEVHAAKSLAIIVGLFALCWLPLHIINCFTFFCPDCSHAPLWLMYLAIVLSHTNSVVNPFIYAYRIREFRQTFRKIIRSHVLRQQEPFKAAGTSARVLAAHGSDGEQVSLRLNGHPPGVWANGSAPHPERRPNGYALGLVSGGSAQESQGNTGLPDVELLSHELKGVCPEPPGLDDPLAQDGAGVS

| IC50 [1] [nM] | IC50 [2] [nM] | Compound |
| --- | --- | --- |
| 3.2 | 281 | COc1cccc2c1nc(N)n1nc(C3CC3c3ccccc3[C@@H](C)O)nc21 (stereo partly drawn) [Ex-12, (1R)-1-{2-[2-(5-amino-7-methoxy[1,2,4]triazolo [1,5-c]quinazolin-2-yl)cyclopropyl]phenyl} ethan-1-ol] |
| 3.3 | 152 | COc1cccc2c1nc(N)n1nc(C3CC3c3ccc4nncn4c3)nc21 (stereo not shown) [Ex-13, 7-methoxy-2-[2-([1,2,4]triazolo[4,3-a]pyridin-6-yl)cyclopropyl][1,2,4] triazolo[1,5-c] quinazolin-5-amine] |
| 3.3 | 56.1 | CCn1cc(C2CC2c2nc3c4cccc(OC)c4nc(N)n3n2)cn1 (stereo not shown) [Ex-14, 2-[2-(1-ethyl-1H-pyrazol-4-yl)cyclopropyl]-7-methoxy[1,2,4]triazolo [1,5-c]quinazolin-5-amine] |
| 3.4 | 1840 | COc1cccc2c1nc(N)n1nc(C3CC3c3ccccc3[C@H](C)O)nc21 (stereo partly drawn) [Ex-15, (1S)-1-{2-[2-(5-amino-7-methoxy[1,2,4]triazolo [1,5-c]quinazolin-2-yl)cyclopropyl]phenyl} ethan-1-ol] |
| 4 | 15.5 | COc1cccc2c1nc(N)n1nc(C3CC3c3cncc(C(C)(C)O)c3)nc21 (stereo not shown) [Ex-16, 2-{5-[2-(5-amino-7-methoxy[1,2,4]triazolo [1,5-c]quinazolin-2-yl)cyclopropyl]pyridin-3-yl} propan-2-ol] |
| 4.1 | 40.7 | COc1cccc2c1nc(N)n1nc(C3CC3c3ccc(C(N)=O)c(F)c3)nc21 (stereo not shown) [Ex-17, 4-[2-(5-amino-7-methoxy[1,2,4]triazolo [1,5-c]quinazolin-2-yl)cyclopropyl]-2-fluorobenzamide] |
| 5.5 | 252 | COc1cccc2c1nc(N)n1nc(C3CC3c3cncc(F)c3)nc21 (stereo not shown) [Ex-18, 2-[2-(5-fluoropyridin-3-yl)cyclopropyl]-7-methoxy[1,2,4]triazolo [1,5-c]quinazolin-5-amine] |
| 5.8 | 32.9 | CNC(=O)c1ccc(C2CC2c2nc3c4cccc(OC)c4nc(N)n3n2)cc1 (stereo not shown) [Ex-19, 4-[2-(5-amino-7-methoxy[1,2,4]triazolo [1,5-c]quinazolin-2-yl)cyclopropyl]-N-methylbenzamide] |
| 6.5 | 395 | COc1cccc2c1nc(N)n1nc(C3CC3c3cccc4c3CNC4=O)nc21 (stereo not shown) [Ex-20, 4-[2-(5-amino-7-methoxy[1,2,4]triazolo [1,5-c]quinazolin-2-yl)cyclopropyl]-2,3-dihydro-1H-isoindol-1-one] |
| 6.9 | 104 | COc1cccc2c1nc(N)n1nc(C3CC3c3ccc4cnn(C)c4c3)nc21 (stereo not shown) [Ex-21, 7-methoxy-2-[2-(1-methyl-1H-indazol-6-yl)cyclopropyl][1,2,4] triazolo[1,5-c] quinazolin-5-amine] |
| 7.7 | 133 | COc1cccc2c1nc(N)n1nc(C3CC3c3cnc(NCCO)nc3)nc21 (stereo not shown) [Ex-22, 2-({5-[2-(5-amino-7-methoxy[1,2,4]triazolo [1,5-c]quinazolin-2-yl)cyclopropyl]pyrimidin-2-yl}amino)ethan-1-ol] |
| 8.3 | 118 | COc1cccc2c1nc(N)n1nc(C3CC3c3cnn(CCO)c3)nc21 (stereo not shown) [Ex-23, 2-{4-[2-(5-amino-7-methoxy[1,2,4]triazolo [1,5-c]quinazolin-2-yl)cyclopropyl]-1H-pyrazol-1-yl} ethan-1-ol] |
| 9 | 42.6 | COc1cccc2c1nc(N)n1nc(C3CC3c3ccc4c(c3)NCCO4)nc21 (stereo not shown) [Ex-24, 2-[2-(3,4-dihydro-2H-1,4-benzoxazin-6-yl)cyclopropy1]-7-methoxy[1,2,4]triazolo [1,5-c]quinazolin-5-amine] |
| 9.9 | 96.3 | COc1cccc2c1nc(N)n1nc(C3CC3c3c[nH]nc3C(F)(F)F)nc21 (stereo not shown) [Ex-25, 7-methoxy-2-{2-[3-(trifluoromethyl)-1H-pyrazol-4-yl]cyclopropyl} [1,2,4] triazolo[1,5-c] quinazolin-5-amine] |
| 12.3 | 718 | COc1cccc2c1nc(N)n1nc(C3CC3c3cnc(C)nc3)nc21 (stereo not shown) [Ex-26, 7-methoxy-2-[2-(2-methylpyrimidin-5-yl)cyclopropyl][1,2,4] triazolo[1,5-c] quinazolin-5-amine] |
| 97.4 | 864 | COc1cccc2c1nc(N)n1nc(C3CC3c3cnn(C)c3)nc21 (stereo not shown) [Ex-27, 7-methoxy-2-[2-(1-methyl-1H-pyrazol-4-yl)cyclopropyl][1,2,4] triazolo[1,5-c] quinazolin-5-amine] |
| 43 | 906 | COc1cccc2c1nc(N)n1nc(C3(CO)CC3)nc21 [Ex-30, [1-(5-amino-7-methoxy[1,2,4]triazolo [1,5-c]quinazolin-2-yl)cyclopropyl]methanol] |

| IC50 [1] [nM] | IC50 [2] [nM] | Compound |
| --- | --- | --- |
| 0.1 | 18.2 | COc1cccc2c1nc(N)n1nc([C@@H]3C[C@H]3c3ccccc3)nc21 [Ex-34, 7-methoxy-2-[(1r,2r)-2-phenylcyclopropyl] [1,2,4]triazolo[1,5-c] quinazolin-5-amine] |
| 17.7 | 1980 | COc1cccc2c1nc(N)n1nc(C3(c4ccccc4)CC3)nc21 [Ex-37, 7-methoxy-2-(1-phenylcyclopropyl) [1,2,4]triazolo[1,5-c] quinazolin-5-amine] |
| 1.4 | 7.6 | COc1cccc2c1nc(N)n1nc(C3CC3Cc3ccc(F)cc3)nc21 (stereo not shown) [Ex-40, 2-(2-(4-fluorobenzyl)cyclopropyl)-7-methoxy-[1,2,4]triazolo[1,5-c]quinazolin-5-amine] |
| 7 | 127 | COc1cccc2c1nc(N)n1nc(C3CC3Cc3ccc(F)cc3)nc21 (stereo not shown) [Ex-41] |
| 10.9 | 10.2 | COc1cccc2c1nc(N)n1nc([C@H]3C[C@H](c4ccc(C(C)(C)O)cc4)C3)nc21 [Ex-43, 2-(4-((1r,3r)-3-(5-amino-7-methoxy-[1,2,4]triazolo[1,5-c]quinazolin-2-yl)cyclobutyl)phenyl)propan-2-ol] |
| 18.3 | 69 | COc1cccc2c1nc(N)n1nc([C@H]3C[C@H](c4cccc(C(C)(C)O)c4)C3)nc21 [Ex-46, 2-{3-[trans-3-(5-amino-7-methoxy [1,2,4]triazolo [1,5-c]quinazolin-2-yl)cyclobutyl]phenyl} propan-2-ol] |
| 9.8 | 10.6 | COc1cccc2c1nc(N)n1nc([C@H]3C[C@@H](c4cccc(C(C)(C)O)c4)C3)nc21 [Ex-47, 2-{3-[cis-3-(5-amino-7-methoxy [1,2,4]triazolo [1,5-c]quinazolin-2-yl)cyclobutyl]phenyl} propan-2-ol] |
| 4.3 | 1.8 | COc1cccc2c1nc(N)n1nc([C@H]3C[C@@H](c4ccc(C(C)(C)N)cn4)C3)nc21 [Ex-67, 2-((1s,3s)-3-(5-(2-aminopropan-2-yl)pyridin-2-yl)cyclobutyl)-7-methoxy-[1,2,4]triazolo[1,5-c]quinazolin-5-amine] |
| 2 | 2.2 | COc1cccc2c1nc(N)n1nc([C@H]3C[C@H](c4ccc(C(C)(C)N)cn4)C3)nc21 [Ex-68, 2-((1r,3r)-3-(5-(2-aminopropan-2-yl)pyridin-2-yl)cyclobutyl)-7-methoxy-[1,2,4]triazolo[1,5-c]quinazolin-5-amine] |
| 6.2 | 0.3 | COc1cc(F)cc2c1nc(N)n1nc(C3CC(c4ccc(C(C)(C)N)cn4)C3)nc21 (stereo not shown) [Ex-69, 2-{3-[5-(2-aminopropan-2-yl)pyridin-2-yl]cyclobutyl}-9-fluoro-7-methoxy[1,2,4]triazolo[1,5-c]quinazolin-5-amine] |
| 2.7 | 1.3 | COc1cccc2c1nc(N)n1nc([C@H]3C[C@H](c4ncc(C(C)(C)N)cc4F)C3)nc21 [Ex-85, 2-{trans-3-[5-(2-aminopropan-2-yl)-3-fluoropyridin-2-yl]cyclobutyl}-7-methoxy[1,2,4]triazolo[1,5-c]quinazolin-5-amine] |
| 0.6 | 11.2 | COc1cccc2c1nc(N)n1nc([C@H]3C[C@H](c4ncc(C(C)(C)N)nc4C)C3)nc21 [Ex-90, 2-((1r,3r)-3-(5-(2-aminopropan-2-yl)-3-methylpyrazin-2-yl)cyclobutyl)-7-methoxy-[1,2,4]triazolo[1,5-c]quinazolin-5-amine] |
| 7.3 | 35.3 | COc1cccc2c1nc(N)n1nc([C@H]3C[C@@H](c4ccccc4)C3)nc21 [Ex-135, 7-methoxy-2-((1s,3s)-3-phenylcyclobutyl)-[1,2,4]triazolo[1,5-c]quinazolin-5-amine] |
| 2.2 | 116 | COc1cccc2c1nc(N)n1nc([C@H]3C[C@H](c4ccccc4)C3)nc21 [Ex-136, 7-methoxy-2-((1r,3r)-3-phenylcyclobutyl)-[1,2,4]triazolo[1,5-c]quinazolin-5-amine] |
| 4 | 2.1 | COc1cccc2c1nc(N)n1nc([C@H]3C[C@@](O)(c4ccc(C(C)(C)O)cn4)C3)nc21 [Ex-137, (1r,3r)-3-(5-amino-7-methoxy-[1,2,4]triazolo[1,5-c]quinazolin-2-yl)-1-(5-(2-hydroxypropan-2-yl)pyridin-2-yl)cyclobutan-1-ol] |
| 9.8 | 12.5 | COc1cccc2c1nc(N)n1nc([C@H]3C[C@@](N)(c4ccc(C(C)(C)O)cn4)C3)nc21 [Ex-138, 2-(6-((l1,3r)-1-amino-3-(5-amino-7-methoxy-[1,2,4]triazolo[1,5-c]quinazolin-2-yl)cyclobutyl)pyridin-3-yl)propan-2-ol] |
| 35.9 | 2490 | COc1cc(F)cc2c1nc(N)n1nc([C@H]3C[C@](O)(c4ccc(C(C)(C)O)nc4)C3)nc21 [Ex-139, (1s,3s)-3-(5-amino-9-fluoro-7-methoxy-[1,2,4]triazolo[1,5-c]quinazolin-2-yl)-1-(6-(2-hydroxypropan-2-yl)pyridin-3-yl)cyclobutan-1-ol] |

| Compound | IC50 [1] [nM] | IC50 [2] [nM] |
| --- | --- | --- |
| COc1cccc2c1nc(N)n1nc(C3CC3c3ccc4c(c3)CCNC4)nc21 (stereo not shown) [Ex-38, 7-methoxy-2-[(1r,2r)-2-(1,2,3,4-tetrahydroisoquinolin-6-yl)cyclopropyl]-1,10b-dihydro[1,2,4]triazolo [1,5-c]quinazolin-5-amine] | 1.1 | 3.1 |
